Data: US20220267719A1, “METHOD FOR LOADING OF MICROORGANISMS ON MULTIPHASE BIOMATERIALS” (priority 2019, published 2022)

Tests used:
S. aureus [1] = assay: Agar well diffusion test without BNC; format: cell-based, Staphylococcus aureus
Protocol: For the agar diffusion test the OD600 of B. megaterium and B. subtilis was adjusted to 0.1 McFarland using sterilized saline NaCl 0.9%. The OD600 of S. aureus was adjusted to 0.5 McFarland using sterilized saline NaCl 0.9%. 20 μl of S. aureus was spread on the surface of Mueller-Hinton agar plate by a sterilized glass spreader. The wells are […] on the agar plate using the back side of a 1 ml pipette tip. A small volume of Mueller-Hinton agar was melted in boiling water bath, then 100 μl of it was used to close the bottom of each created well. After solidification of the agar in the bottom of the wells, the wells were filled with 100 μl of: Negative control, sterilized saline NaCl 0.9%, Positive control, gentamicin 300 μg/ml, B. megaterium or B. subtilis-free supernatant, B. megaterium or B. subtilis suspension.

S. aureus [2] = assay: Agar diffusion test with loaded BNC fleeces; format: cell-based, Staphylococcus aureus
Protocol: The evaluation of the antibacterial activity of B. subtilis and B. megaterium loaded-BNC against gram-positive S. aureus was determined by an agar diffusion test. Therefore, the bacterial suspensions of B. subtilis and S. aureus were prepared in TSB broth medium as described before. […] 3 BNC fleeces were loaded using B. subtilis suspension in TSB medium, and 3 BNC fleeces were loaded using B. subtilis suspension in saline. Further 3 BNC fleeces were loaded using the B. subtilis free-supernatant, 3 BNC fleeces were loaded with gentamycin as positive control, and 3 BNC fleeces with isotonic saline as negative control. The OD600 of S. aureus was adjusted to 0.5 McFarland using sterilized saline NaCl 0.9% and the optical density spectrophotometer (Biophotometer) was determined. 20 μl of S. aureus was spread on the surface of Mueller-Hinton agar plate by a sterilized glass spreader. The last control and loaded BNC fleeces were added onto surface of the Mueller Hinton agar: 1. Negative control: saline-loaded BNC 2. Positive control: gentamicin-loaded BNC 3. B. subtilis-loaded BNC in TSB medium 4. B. subtilis-loaded BNC in saline 5. B. subtilis-free supernatant-loaded BNC.

In the case of gentamicin [Gentamycin], the “inhibition effect on S. aureus by diffusion test, Without BNC” value (S. aureus [1]) is reported as “+ (by detection of inhibition zone > 2 mm)”, the “inhibition effect on S. aureus by diffusion test, on BNC - injection technique” value (S. aureus [2]; loaded on BNC by injection) is reported as “+ (by detection of inhibition zone > 2 mm)” and the “inhibition effect on S. aureus by diffusion test, on BNC - spray technique” value (S. aureus [2]; loaded on BNC by spray) is reported as “+ (by detection of inhibition zone > 2 mm)”. The “inhibition effect on S. aureus by diffusion test, on BNC - vortex technique” value (S. aureus [2]; loaded on BNC by vortex) was “+ (by detection of inhibition zone > 2 mm)”.
